According to paper PMC7126999 (Bioorganic & Medicinal Chemistry, 2015):
Several values for one entry are separate records, joined by “and”; a condition that tells them apart may be missing. Equal entries are not always repeated. Where two headings read alike, the source gives them in different places.

Experiments:
HEL cells = test: Cytotoxicity, cell morphology; type: cell-based, human; conditions: exp. 1 and exp. 2
[1] = Cell viability of MDCK cells, formazan-based MTS assay; set-up: species or system canine; conditions: dog, MDCK cells
[2] = Cell viability of CrFK cells, formazan-based MTS assay; set-up: species or system feline; conditions: cat, CrFK cells
[3] = system: human cervix carcinoma HeLa cells; test: Inhibition of proliferation of human cervix carcinoma HeLa cells; type: cell-based; conditions: read-out: IC50 HeLa
[4] = system: three strains of herpes simplex virus; type: cell-based; conditions: HEL, read-out: EC50 against three strains of herpes simplex virus
HSV and Vaccinia viruses = test: microbe, parasite or virus in culture; type: cell-based, herpes simplex virus; vaccinia virus; conditions: Orthopoxvirus vaccinia, read-out: EC50 against HSV and Vaccinia viruses
Vaccinia virus = test: microbe, parasite or virus in culture; type: cell-based; conditions: for EC50: Orthopoxvirus vaccinia, HEL, read-out: EC50 Vaccinia virus
[5] = system: L1210, CEM and HeLa cell lines; test: Cytostatic activity on L1210, CEM and HeLa cell lines; type: cell-based, murine; human; conditions: fold more cytostatic than cis-9d / cis-9f
human lymphocyte CEM = test: Inhibition of proliferation of human T-lymphocyte CEM cells; type: cell-based; conditions: for cytostatic activity against CEM relative to 5-fluorouracil: fold more active than 5-fluorouracil; for IC50: read-out: IC50 CEM
cytomegalovirus = test: Antiviral activity against cytomegalovirus in HEL cells; type: cell-based, human cytomegalovirus (HCMV); conditions: read-out: EC50 toward cytomegalovirus, strain not specified
MDCK cells = test: Cell viability of MDCK cells, formazan-based MTS assay; set-up: species or system canine; conditions: read-out: CC50 MDCK; cell viability, colorimetric formazan-based MTS assay
CrFK cells = test: Cell viability of CrFK cells, formazan-based MTS assay; set-up: species or system feline; conditions: read-out: CC50 CrFK; cell viability, colorimetric formazan-based MTS assay
murine leukemia L1210 = test: Inhibition of proliferation of murine leukemia L1210 cells; type: cell-based; conditions: read-out: IC50 L1210; inhibit tumor cell proliferation by 50%
Punta Toro virus = test: microbe, parasite or virus in culture; type: cell-based; conditions: Vero, read-out: EC50 Punta Toro virus
Coxsackie virus B4 = type: cell-based; conditions: Vero cell cultures; DS-10.000 in μg/ml
[6] = Table 3 (cytomegalovirus assays)
[7] = inhibit tumor cell proliferation by 50%

CCCN1C(=O)c2cccc3cc(NC(=O)[C@H]4C[C@@H](P(=O)(OCC)OCC)N(C)O4)cc(c23)C1=O (racemic) [cis-9a, Diethyl cis-5-(N-propylnaphthalimide-3-ylcarbamoyl)-2-methylisoxazolidin-3-yl-3-phosphonate]
Cytotoxicity Cell morphology MCC (HEL cells; [6]): >100 μM | Cytotoxicity Cell morphology MCC (HEL cells; Table 4 (VZV assays)): >100 μM

CCCCN1C(=O)c2cccc3cc(NC(=O)[C@H]4C[C@@H](P(=O)(OCC)OCC)N(C)O4)cc(c23)C1=O (racemic) [cis-9b, Diethyl cis-5-(N-butylnaphthalimide-3-ylcarbamoyl)-2-methylisoxazolidin-3-yl-3-phosphonate]
Cytotoxicity Cell morphology MCC (HEL cells; [6]): 100 μM | Cytotoxicity Cell morphology MCC (HEL cells; Table 4 (VZV assays)): >100 μM | CC50 [1]: > 100 µM | CC50 [2]: > 100 µM | IC50 ([3]; Homo sapiens, HeLa): 25 ± 3 µM

CCOP(=O)(OCC)[C@@H]1C[C@H](C(=O)Nc2cc3c4c(cccc4c2)C(=O)N(CC(C)C)C3=O)ON1C (racemic) [cis-9c, Diethyl cis-5-(N-isobutylnaphthalimide-3-ylcarbamoyl)-2-methylisoxazolidin-3-yl-3-phosphonate]
Cytotoxicity Cell morphology MCC (HEL cells; [6]): >100 μM | Cytotoxicity Cell morphology MCC (HEL cells; Table 4 (VZV assays)): >100 μM

CCOP(=O)(OCC)[C@@H]1C[C@H](C(=O)Nc2cc3c4c(cccc4c2)C(=O)N(CCN(C)C)C3=O)ON1C (racemic) [cis-9d, Diethyl cis-5-[N-(2-dimethylamino)ethylnaphthalimide-3-ylcarbamoyl]-2-methylisoxazolidin-3-yl-3-phosphonate]
Cytotoxicity Cell morphology MCC (HEL cells; [6]): >100 μM | Cytotoxicity Cell morphology MCC (HEL cells; Table 4 (VZV assays)): 100 μM | EC50 [4]: 45 to 100 µM | EC50 (HSV and Vaccinia viruses): 45 to 58 µM

CCOP(=O)(OCC)[C@@H]1C[C@H](C(=O)Nc2cc3c4c(cccc4c2)C(=O)N(CCN(CC)CC)C3=O)ON1C (racemic) [cis-9e, Diethyl cis-5-[N-(2-diethylamino)ethylnaphthalimide-3-ylcarbamoyl]-2-methylisoxazolidin-3-yl-3-phosphonate]
CC50 [1]: > 100 µM

CCOP(=O)(OCC)[C@@H]1C[C@H](C(=O)Nc2cc3c4c(cccc4c2)C(=O)N(CCN2CCCC2)C3=O)ON1C (racemic) [cis-9f, Diethyl cis-5-[N-(2-pirolidyn-1-yl)ethylnaphthalimide-3-ylcarbamoyl]-2-methylisoxazolidin-3-yl-3-phosphonate]
EC50 (Vaccinia virus): 45 to 100 µM | Cytotoxicity Cell morphology MCC (HEL cells; [6]): >100 μM | Cytotoxicity Cell morphology MCC (HEL cells; Table 4 (VZV assays)): 100 μM and >100 μM

CCCN1C(=O)c2cccc3cc(NC(=O)[C@@H]4C[C@@H](P(=O)(OCC)OCC)N(C)O4)cc(c23)C1=O (racemic) [trans-9a, Diethyl trans-5-(N-propylnaphtalimide-3-ylcarbamoyl)-2-methylisoxazolidin-3-yl-3-phosphonate]
Cytotoxicity Cell morphology MCC (HEL cells; [6]): >100 μM | Cytotoxicity Cell morphology MCC (HEL cells; Table 4 (VZV assays)): >100 μM | CC50 [2]: > 100 µM

CCCCN1C(=O)c2cccc3cc(NC(=O)[C@@H]4C[C@@H](P(=O)(OCC)OCC)N(C)O4)cc(c23)C1=O (racemic) [trans-9b, Diethyl trans-5-(N-butylnaphthalimide-3-ylcarbamoyl)-2-methylisoxazolidin-3-yl-3-phosphonate]
Cytotoxicity Cell morphology MCC (HEL cells; [6]): 100 μM | Cytotoxicity Cell morphology MCC (HEL cells; Table 4 (VZV assays)): >100 μM

CCOP(=O)(OCC)[C@@H]1C[C@@H](C(=O)Nc2cc3c4c(cccc4c2)C(=O)N(CCN(C)C)C3=O)ON1C (racemic) [trans-9d, Diethyl trans-5-[N-(2-dimethylamino)ethylnaphthalimide-3-ylcarbamoyl]-2-methylisoxazolidin-3-yl-3-phosphonate]
Cytotoxicity Cell morphology MCC (HEL cells; [6]): 100 μM | Cytotoxicity Cell morphology MCC (HEL cells; Table 4 (VZV assays)): >100 μM | cytostatic activity of trans-isomer relative to corresponding cis-isomer [5]: two-fold | cytostatic activity against CEM relative to 5-fluorouracil (human lymphocyte CEM): five-fold | EC50 [4]: 45 to 100 µM | EC50 (HSV and Vaccinia viruses): 45 to 58 µM

CCOP(=O)(OCC)[C@@H]1C[C@@H](C(=O)Nc2cc3c4c(cccc4c2)C(=O)N(CCN(CC)CC)C3=O)ON1C (racemic) [trans-9e, Diethyl trans-5-[N-(2-diethylamino)ethylnaphthalimide-3-ylcarbamoyl]-2-methylisoxazolidin-3-yl-3-phosphonate]
CC50 [2]: > 100 µM

CCOP(=O)(OCC)[C@@H]1C[C@@H](C(=O)Nc2cc3c4c(cccc4c2)C(=O)N(CCN2CCCC2)C3=O)ON1C (racemic) [trans-9f, Diethyl trans-5-[N-(2-pirolidyn-1-yl)ethylnaphthalimide-3-ylcarbamoyl]-2-methylisoxazolidin-3-yl-3-phosphonate]
EC50 (cytomegalovirus): 8.9 to 20 µM | Cytotoxicity Cell morphology MCC (HEL cells; [6]): 100 μM | Cytotoxicity Cell morphology MCC (HEL cells; Table 4 (VZV assays)): 100 μM | cytostatic activity of trans-isomer relative to corresponding cis-isomer [5]: two-fold | cytostatic activity against CEM relative to 5-fluorouracil (human lymphocyte CEM): five-fold | EC50 [4]: 45 to 100 µM | EC50 (HSV and Vaccinia viruses): 45 to 58 µM

CCOP(=O)(OCC)[C@H]1C[C@H](CN2C(=O)c3cccc4cccc(c34)C2=O)ON1C (relative stereo) [trans-10a/cis-10a (93:7), Diethyl trans-5-(1,3-dioxo-2,3-dihydro-1H-benzo[de]izochinolin-2-ylmethyl)-2-methylisoxazolidin-3-yl-3-phosphonate]
CC50 (MDCK cells): > 100 µM | CC50 (CrFK cells): > 100 µM | IC50 [3, 7]: 77 ± 20 µM | IC50 (human lymphocyte CEM; [7]): 111 ± 14 µM | IC50 (murine leukemia L1210): 180 ± 47 µM

CCOP(=O)(OCC)[C@H]1C[C@H](CN2C(=O)c3cccc4cc([N+](=O)[O-])cc(c34)C2=O)ON1C (relative stereo) [trans-10b/cis-10b (94:6), Diethyl trans-5-(5-nitro-1,3-dioxo-2,3-dihydro-1H-benzo[de]izochinolin-2-ylmethyl)-2-methylisoxazolidin-3-yl-3-phosphonate]
CC50 (MDCK cells): > 100 µM | CC50 (CrFK cells): > 100 µM | IC50 [3, 7]: 20 ± 3 µM | IC50 (human lymphocyte CEM; [7]): 51 ± 6 µM | IC50 (murine leukemia L1210): 34 ± 6 µM

CCOP(=O)(OCC)[C@H]1C[C@H](CN2C(=O)c3cccc4cc(N)cc(c34)C2=O)ON1C (relative stereo) [trans-10c/cis-10c (93:7), Diethyl trans-5-(5-amino-1,3-dioxo-2,3-dihydro-1H-benzo[de]izochinolin-2-ylmethyl)-2-methylisoxazolidin-3-yl-3-phosphonate]
CC50 (MDCK cells): > 100 µM | CC50 (CrFK cells): > 100 µM | IC50 [3, 7]: 101 ± 58 µM | IC50 (human lymphocyte CEM; [7]): 99 ± 2 µM | IC50 (murine leukemia L1210): 95 ± 42 µM

CCOP(=O)(OCC)[C@H]1C[C@H](CN2C(=O)c3cccc4cc(NC(C)=O)cc(c34)C2=O)ON1C (relative stereo) [trans-10d/cis-10d (93:7), Diethyl trans-5-(5-acetamido-1,3-dioxo-2,3-dihydro-1H-benzo[de]izochinolin-2-ylmethyl)-2-methylisoxazolidin-3-yl-3-phosphonate]
CC50 (MDCK cells): > 100 µM | CC50 (CrFK cells): > 100 µM | IC50 [3, 7]: 111 ± 3 µM | IC50 (human lymphocyte CEM; [7]): 125 ± 4 µM | IC50 (murine leukemia L1210): 136 ± 14 µM

O=c1[nH]cc(F)c(=O)[nH]1 [5-Fluorouracil, reference compound]
IC50 ([3]; Homo sapiens, HeLa): 0.54 ± 0.12 µM | IC50 (human lymphocyte CEM; Homo sapiens, Lymphocyte): 18 ± 5 µM

Nc1nc2c(ncn2COCCO)c(=O)[nH]1 [Acyclovir, acyclovir]
activity against vaccinia virus, in words (Vaccinia virus): inactive

O=c1[nH]c(=O)n([C@H]2C[C@H](O)[C@@H](CO)O2)cc1/C=C/Br [Brivudin, brivudin, reference compound]
EC50 (Vaccinia virus): 17 to 22 µM | Cytotoxicity Cell morphology MCC (HEL cells; Table 4 (VZV assays)): >300 μM

Nc1ccn(C[C@@H](CO)OCP(=O)(O)O)c(=O)n1.O.O [Cidofovir, cidofovir, reference compound]
Cytotoxicity Cell morphology MCC (HEL cells; [6]): >350 μM

Nc1nc2c(ncn2COC(CO)CO)c(=O)[nH]1 [Ganciclovir, ganciclovir, reference compound]
activity against vaccinia virus, in words (Vaccinia virus): inactive | Cytotoxicity Cell morphology MCC (HEL cells; [6]): >350 μM

NC(=O)c1ncn([C@@H]2O[C@H](CO)[C@@H](O)[C@H]2O)n1 [Ribavirin, ribavirin]
EC50 (Punta Toro virus): 250 µM

CCOP(=O)(OCC)[C@@H]1C[C@@H](C(=O)Nc2cc3c4c(cccc4c2)C(=O)N(CC(C)C)C3=O)ON1C [trans-9c, Diethyl trans-5-(N-isobutylnaphthalimide-3-ylcarbamoyl)-2-methylisoxazolidin-3-yl-3-phosphonate]
Cytotoxicity Cell morphology MCC (HEL cells; [6]): >100 μM | Cytotoxicity Cell morphology MCC (HEL cells; Table 4 (VZV assays)): >100 μM | CC50 [2]: > 100 µM

dextran sulfate [DS-10.000]
EC50 Coxsackie virus B4 (Coxsackie virus B4): >100 µg/mL
